The record followed here is ChEMBL document CHEMBL5465560, “Selectivity Literature for EUbOPEN Chemogenomic Library” (2024).

Assay [1] concerns the target Glycogen synthase kinase-3 beta (Homo sapiens, UniProt P49841). The assay can be described thus: Selectivity interaction (Ambit KINOMEscan and KiNATiv profiling in Jurkat cells) EUB0000090b GSK3B. The format is cell-based. Conditions: at 1 µM.
In assay [2] the target is Insulin receptor-related protein (Homo sapiens) (UniProt P14616). The assay can be described thus: Selectivity interaction (SelectScreen profiling (Invitrogen)) EUB0000607a INSRR. Conditions: at 2 µM.
For assay [3], the target named is Tyrosine-protein kinase Fer (Homo sapiens) (UniProt P16591). The assay can be described thus: Selectivity interaction (KinomeScan (DiscoverX)) EUB0000655a FER. Conditions: at 10 µM.
Assay [4] addresses Leucine-rich repeat serine/threonine-protein kinase 2 (Homo sapiens, UniProt Q5S007). The assay can be described thus: Selectivity interaction (ActivX KiNativ screen (kinase selectivity in THP-1 cell lysates)) EUB0000639a LRRK2. Conditions: lysate. In kind it is subcellular.
In assay [5] the target is T1, Mitogen-activated protein kinase kinase kinase 5 (Homo sapiens) (UniProt Q99683).
T1 sequence (whole entry): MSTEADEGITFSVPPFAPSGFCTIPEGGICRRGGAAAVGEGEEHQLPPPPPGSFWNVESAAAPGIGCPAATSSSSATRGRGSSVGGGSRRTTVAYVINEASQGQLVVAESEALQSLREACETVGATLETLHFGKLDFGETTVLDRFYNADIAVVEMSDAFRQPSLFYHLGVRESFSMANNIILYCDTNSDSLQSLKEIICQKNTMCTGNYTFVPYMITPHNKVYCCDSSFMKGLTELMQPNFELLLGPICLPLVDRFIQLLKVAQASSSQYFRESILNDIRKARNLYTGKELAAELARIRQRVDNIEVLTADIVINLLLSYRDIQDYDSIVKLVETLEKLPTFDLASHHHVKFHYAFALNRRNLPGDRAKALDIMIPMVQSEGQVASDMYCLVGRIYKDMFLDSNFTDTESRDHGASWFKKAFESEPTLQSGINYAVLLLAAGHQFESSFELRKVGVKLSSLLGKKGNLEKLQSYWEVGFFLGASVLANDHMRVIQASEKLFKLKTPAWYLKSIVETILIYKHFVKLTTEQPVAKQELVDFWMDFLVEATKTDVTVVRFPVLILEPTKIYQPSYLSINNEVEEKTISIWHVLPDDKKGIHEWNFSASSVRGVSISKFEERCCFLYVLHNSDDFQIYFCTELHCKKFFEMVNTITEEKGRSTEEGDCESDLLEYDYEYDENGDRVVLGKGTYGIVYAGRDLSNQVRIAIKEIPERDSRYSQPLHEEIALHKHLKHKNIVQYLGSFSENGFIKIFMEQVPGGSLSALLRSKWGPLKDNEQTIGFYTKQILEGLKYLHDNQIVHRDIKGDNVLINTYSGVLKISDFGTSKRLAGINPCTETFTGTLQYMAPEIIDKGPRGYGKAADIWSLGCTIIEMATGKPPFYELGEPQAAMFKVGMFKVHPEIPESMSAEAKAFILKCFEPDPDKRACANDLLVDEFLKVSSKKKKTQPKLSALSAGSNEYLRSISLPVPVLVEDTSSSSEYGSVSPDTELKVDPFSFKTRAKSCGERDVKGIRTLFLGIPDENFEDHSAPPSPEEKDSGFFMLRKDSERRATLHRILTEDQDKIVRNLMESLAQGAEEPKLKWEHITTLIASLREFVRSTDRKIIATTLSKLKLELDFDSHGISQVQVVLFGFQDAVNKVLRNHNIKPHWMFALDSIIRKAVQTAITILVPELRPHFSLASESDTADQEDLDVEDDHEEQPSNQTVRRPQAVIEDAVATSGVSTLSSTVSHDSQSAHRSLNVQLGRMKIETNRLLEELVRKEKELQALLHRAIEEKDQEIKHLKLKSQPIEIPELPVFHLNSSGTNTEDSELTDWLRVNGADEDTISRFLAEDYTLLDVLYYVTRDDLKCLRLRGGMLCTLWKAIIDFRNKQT
As to the kind of experiment: Selectivity interaction (ActivX KiNativ screen (kinase selectivity in THP-1 cell lysates)) EUB0000639a MAP3K5. In kind it is subcellular. Conditions: lysate.

The target in assay [6] is T2, Serine/threonine-protein kinase DCLK2 (Homo sapiens) (UniProt Q8N568).
T2 sequence (whole entry): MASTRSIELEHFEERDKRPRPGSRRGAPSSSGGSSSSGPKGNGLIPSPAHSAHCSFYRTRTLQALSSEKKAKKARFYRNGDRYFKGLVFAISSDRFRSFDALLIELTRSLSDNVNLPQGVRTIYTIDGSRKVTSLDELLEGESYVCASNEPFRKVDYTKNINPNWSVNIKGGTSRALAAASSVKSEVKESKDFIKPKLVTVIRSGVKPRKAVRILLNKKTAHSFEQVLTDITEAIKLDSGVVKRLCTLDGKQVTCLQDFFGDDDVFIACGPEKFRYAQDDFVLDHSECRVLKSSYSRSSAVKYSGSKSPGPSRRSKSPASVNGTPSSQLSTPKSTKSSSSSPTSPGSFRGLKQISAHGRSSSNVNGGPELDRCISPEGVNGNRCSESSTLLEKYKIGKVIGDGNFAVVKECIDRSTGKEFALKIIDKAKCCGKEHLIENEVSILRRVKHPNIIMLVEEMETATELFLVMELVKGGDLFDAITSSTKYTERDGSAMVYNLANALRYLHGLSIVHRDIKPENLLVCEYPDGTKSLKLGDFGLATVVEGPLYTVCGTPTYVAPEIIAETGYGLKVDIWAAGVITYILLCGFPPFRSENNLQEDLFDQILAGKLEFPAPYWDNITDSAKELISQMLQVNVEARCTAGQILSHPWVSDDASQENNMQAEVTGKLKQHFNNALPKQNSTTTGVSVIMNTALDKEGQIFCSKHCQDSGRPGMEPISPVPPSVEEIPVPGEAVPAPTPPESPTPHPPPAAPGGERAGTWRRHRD
The assay can be described thus: Selectivity interaction (Kinase screening (Nanosyn)) EUB0000604a DCLK2.

SMILES strings stand for the structures.

Sequence of Leucine-rich repeat serine/threonine-protein kinase 2 (Q5S007 whole entry): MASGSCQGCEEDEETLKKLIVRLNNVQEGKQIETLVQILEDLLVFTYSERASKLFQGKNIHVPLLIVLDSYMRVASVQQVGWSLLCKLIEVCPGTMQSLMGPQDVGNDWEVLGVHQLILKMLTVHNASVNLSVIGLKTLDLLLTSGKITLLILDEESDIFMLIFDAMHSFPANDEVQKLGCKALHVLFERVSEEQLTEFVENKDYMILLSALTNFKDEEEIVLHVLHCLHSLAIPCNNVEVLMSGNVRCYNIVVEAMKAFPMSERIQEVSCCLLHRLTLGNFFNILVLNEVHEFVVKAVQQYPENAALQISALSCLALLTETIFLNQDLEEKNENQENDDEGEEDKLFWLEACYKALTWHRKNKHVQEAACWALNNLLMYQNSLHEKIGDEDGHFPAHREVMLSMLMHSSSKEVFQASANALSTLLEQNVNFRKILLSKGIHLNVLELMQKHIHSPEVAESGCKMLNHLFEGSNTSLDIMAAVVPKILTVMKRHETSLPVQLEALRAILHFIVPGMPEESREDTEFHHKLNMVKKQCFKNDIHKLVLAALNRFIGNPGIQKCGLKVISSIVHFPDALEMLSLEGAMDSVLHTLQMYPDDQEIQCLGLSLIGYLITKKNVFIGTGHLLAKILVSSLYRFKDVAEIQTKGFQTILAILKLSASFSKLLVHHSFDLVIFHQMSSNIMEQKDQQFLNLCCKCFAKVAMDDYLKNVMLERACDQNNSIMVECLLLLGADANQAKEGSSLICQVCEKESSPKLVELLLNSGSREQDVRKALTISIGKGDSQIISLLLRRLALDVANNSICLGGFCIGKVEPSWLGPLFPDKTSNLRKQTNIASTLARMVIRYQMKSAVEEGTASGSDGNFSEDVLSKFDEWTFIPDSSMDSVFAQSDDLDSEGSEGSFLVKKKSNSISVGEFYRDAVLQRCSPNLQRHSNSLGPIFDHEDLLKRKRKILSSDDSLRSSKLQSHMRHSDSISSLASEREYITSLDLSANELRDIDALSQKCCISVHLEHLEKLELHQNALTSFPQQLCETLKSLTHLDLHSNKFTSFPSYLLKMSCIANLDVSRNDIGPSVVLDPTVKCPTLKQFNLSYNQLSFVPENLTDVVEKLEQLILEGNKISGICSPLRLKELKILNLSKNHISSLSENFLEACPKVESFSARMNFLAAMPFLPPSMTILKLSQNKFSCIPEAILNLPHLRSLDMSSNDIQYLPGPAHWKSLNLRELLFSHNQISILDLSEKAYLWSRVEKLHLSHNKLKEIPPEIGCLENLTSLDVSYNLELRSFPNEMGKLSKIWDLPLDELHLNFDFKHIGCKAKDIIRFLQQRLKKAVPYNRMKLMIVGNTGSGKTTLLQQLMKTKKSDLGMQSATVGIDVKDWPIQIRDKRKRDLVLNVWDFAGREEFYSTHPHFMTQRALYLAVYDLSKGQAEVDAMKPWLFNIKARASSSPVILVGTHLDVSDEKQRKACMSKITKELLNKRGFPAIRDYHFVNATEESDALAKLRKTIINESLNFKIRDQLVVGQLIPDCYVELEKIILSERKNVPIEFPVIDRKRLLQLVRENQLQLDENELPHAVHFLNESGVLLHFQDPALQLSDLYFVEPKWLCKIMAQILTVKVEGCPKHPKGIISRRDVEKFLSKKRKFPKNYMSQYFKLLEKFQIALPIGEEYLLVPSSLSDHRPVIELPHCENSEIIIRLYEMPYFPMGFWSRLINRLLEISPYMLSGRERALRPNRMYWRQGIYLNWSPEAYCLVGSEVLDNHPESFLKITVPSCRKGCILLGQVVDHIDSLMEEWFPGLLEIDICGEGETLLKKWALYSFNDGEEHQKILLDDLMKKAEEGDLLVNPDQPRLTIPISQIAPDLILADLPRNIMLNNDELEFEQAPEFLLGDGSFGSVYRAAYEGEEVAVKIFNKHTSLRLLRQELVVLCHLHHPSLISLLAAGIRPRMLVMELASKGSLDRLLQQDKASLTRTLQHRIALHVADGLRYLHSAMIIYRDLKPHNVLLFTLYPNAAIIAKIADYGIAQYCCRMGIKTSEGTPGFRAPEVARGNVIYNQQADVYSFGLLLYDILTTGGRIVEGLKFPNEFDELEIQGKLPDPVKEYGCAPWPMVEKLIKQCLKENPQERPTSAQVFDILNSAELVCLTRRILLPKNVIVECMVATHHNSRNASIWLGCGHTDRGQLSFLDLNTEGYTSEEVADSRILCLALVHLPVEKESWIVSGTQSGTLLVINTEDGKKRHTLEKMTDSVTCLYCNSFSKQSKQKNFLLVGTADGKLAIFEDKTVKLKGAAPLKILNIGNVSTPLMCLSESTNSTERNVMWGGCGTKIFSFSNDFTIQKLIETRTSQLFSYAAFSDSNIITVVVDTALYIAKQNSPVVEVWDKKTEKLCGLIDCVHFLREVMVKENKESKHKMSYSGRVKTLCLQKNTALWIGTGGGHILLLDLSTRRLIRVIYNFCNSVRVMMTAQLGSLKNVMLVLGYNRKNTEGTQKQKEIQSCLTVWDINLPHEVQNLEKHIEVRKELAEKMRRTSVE
Sequence of Insulin receptor-related protein (Homo sapiens) (P14616 27-742 limits assumed): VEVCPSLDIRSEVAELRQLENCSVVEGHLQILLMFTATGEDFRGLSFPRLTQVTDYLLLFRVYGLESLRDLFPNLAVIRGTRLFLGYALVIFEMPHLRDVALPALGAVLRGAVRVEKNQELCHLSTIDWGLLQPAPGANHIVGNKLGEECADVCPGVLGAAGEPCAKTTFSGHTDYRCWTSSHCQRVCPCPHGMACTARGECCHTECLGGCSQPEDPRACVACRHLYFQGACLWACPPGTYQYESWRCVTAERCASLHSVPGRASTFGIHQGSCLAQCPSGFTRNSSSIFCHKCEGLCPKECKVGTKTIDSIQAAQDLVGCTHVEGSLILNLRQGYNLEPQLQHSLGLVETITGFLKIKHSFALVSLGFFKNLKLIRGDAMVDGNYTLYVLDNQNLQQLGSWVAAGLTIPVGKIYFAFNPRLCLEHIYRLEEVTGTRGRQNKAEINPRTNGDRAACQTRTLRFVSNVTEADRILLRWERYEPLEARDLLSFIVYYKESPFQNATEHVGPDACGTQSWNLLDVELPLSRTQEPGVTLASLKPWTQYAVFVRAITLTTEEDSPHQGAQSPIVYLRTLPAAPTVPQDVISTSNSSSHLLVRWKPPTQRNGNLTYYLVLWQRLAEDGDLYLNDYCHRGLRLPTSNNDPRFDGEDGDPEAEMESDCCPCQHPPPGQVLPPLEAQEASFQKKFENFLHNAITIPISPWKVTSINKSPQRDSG
Sequence of Insulin receptor-related protein (Homo sapiens) (P14616 747-1297 limits assumed): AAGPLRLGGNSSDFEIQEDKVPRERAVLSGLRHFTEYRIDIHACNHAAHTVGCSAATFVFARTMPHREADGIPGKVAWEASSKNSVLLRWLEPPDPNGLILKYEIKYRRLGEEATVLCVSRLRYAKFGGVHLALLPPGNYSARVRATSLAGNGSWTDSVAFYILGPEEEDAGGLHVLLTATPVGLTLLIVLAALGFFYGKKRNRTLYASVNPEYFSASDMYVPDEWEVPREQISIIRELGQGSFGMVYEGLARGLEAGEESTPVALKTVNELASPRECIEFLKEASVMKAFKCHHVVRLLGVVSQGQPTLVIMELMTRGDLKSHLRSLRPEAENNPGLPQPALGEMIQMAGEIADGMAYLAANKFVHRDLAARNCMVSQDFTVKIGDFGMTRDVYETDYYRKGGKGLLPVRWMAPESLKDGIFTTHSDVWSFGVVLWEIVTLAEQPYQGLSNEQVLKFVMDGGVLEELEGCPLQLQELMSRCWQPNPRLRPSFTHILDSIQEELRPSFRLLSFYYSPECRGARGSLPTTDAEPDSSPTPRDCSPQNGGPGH
Sequence of Tyrosine-protein kinase Fer (Homo sapiens) (P16591 whole entry, looked up): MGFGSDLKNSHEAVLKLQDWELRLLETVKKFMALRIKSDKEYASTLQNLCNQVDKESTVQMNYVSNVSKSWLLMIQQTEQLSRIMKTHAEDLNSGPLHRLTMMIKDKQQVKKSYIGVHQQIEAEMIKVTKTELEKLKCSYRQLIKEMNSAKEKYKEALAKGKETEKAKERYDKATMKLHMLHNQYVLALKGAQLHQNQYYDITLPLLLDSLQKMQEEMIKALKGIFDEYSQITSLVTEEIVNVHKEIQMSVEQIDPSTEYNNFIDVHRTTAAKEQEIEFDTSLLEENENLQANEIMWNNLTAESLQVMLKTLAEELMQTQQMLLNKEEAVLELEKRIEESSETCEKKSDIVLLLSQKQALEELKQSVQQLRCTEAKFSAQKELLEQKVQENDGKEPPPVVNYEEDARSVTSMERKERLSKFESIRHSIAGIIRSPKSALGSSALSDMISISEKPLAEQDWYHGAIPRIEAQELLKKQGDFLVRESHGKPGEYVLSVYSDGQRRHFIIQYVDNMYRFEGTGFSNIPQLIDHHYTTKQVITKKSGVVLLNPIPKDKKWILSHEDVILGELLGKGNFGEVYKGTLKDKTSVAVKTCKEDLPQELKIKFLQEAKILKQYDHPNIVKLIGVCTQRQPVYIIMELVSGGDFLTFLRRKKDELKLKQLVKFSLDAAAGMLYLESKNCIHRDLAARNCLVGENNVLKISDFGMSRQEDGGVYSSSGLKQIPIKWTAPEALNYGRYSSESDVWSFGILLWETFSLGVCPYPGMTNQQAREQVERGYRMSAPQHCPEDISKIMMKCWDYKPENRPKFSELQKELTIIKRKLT
Sequence of Glycogen synthase kinase-3 beta (P49841 whole entry, looked up): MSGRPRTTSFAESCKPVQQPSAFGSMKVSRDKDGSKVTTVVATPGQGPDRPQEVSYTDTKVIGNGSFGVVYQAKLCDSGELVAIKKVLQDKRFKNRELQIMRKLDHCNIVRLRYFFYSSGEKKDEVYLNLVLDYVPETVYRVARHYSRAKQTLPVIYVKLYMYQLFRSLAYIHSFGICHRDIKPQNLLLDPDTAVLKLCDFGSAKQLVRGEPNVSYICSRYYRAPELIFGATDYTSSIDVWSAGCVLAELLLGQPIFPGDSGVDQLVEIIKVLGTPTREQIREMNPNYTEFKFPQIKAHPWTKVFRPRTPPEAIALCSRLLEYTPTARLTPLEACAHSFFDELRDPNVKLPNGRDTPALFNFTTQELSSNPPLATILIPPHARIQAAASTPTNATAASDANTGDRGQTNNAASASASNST

As for `CN(C)C/C=C/C(=O)Nc1ccc(C(=O)N2CCCC(Nc3ncc(Cl)c(-c4c[nH]c5ccccc45)n3)C2)cc1` (centres undefined), in assay [1], the % of control came out at 38%.

For `CNC(=O)Nc1ccc(-c2nc(N3CC4CCC(C3)O4)c3cnn(C4CCC5(CC4)OCCO5)c3n2)cc1`, in assay [2], the % of inhibition was determined as 6%.

As for `CN(C)CCOc1ccc(-c2nc(-c3ccncc3)c(-c3ccc4c(c3)CC/C4=N\O)[nH]2)cc1`, in assay [3], the % of control was 100%.

As to `CC[C@@H]1[C@H](F)C(=O)N[C@@H]1COc1nccc2cc(C(N)=O)c(OC)cc12` [ZIMLOVISERTIB], the % of inhibition in assay [4] (at 0.01 µM) was 18.4%; in assay [4] (at 0.04 µM), 1.9%; in assay [4] (at 0.2 µM), 22.9%; in assay [4] (at 1 µM) it was 70.9%; in assay [4] (at 5 µM) it was 78%; in assay [5] (at 0.01 µM) it was -12.1%. For the same compound, the % of inhibition in assay [5] (at 0.04 µM) is -3.2%; in assay [5] (at 0.2 µM), 0%; in assay [5] (at 1 µM), -6.5%; in assay [5] (at 5 µM), -21.9%.

`Cc1cnc(Nc2ccc(F)cc2Cl)nc1-c1c[nH]c(C(=O)N[C@H](CO)c2cccc(Cl)c2)c1`: the % of inhibition in assay [6] came to 1%.
